Reference: US5849259A, “3-,8-substituted deuteroporphyrin derivatives, pharmaceutical agents containing the latter and process for their production” (priority 1992, dated 1998)

Tested on: DMBA-induced breast cancer
Test: Signal intensity change in tissues of rats with DMBA-induced breast cancer, Bruker Biospec 2.35 Tesla, MSVE
Assay type: in vivo
Set-up: key to enhancement, Tumor / enhancement, Liver / enhancement, Kidneys / enhancement, Muscle: signal intensity relative to an internal standard
Procedure: b) On a Bruker Biospec nuclear spin tomograph (2.35 Tesla), the signal intensity change in various tissues of rats with a DMBA-induced breast cancer was studied after i.v. administration of 0.05 mmol/kg or 0.1 mmol of the compound of example 1c (20 mmol/l, pH 7.2; 37° C. in bidistilled water). The measurements took place with a multi slice variable echo sequence (MSVE). Imaging parameters: TR: 400 ms, TE: 25 ms, layer thickness: 4 mm, number of averages: 4/slice, matrix 256^2.
After a preliminary image, 0.05 mmol/kg or 0.1 mmol/kg of the substance was administered and the signal intensity change (relative to an internal standard) was studied.
The ^1 H-NMR images of the DMBA-induced breast cancer after administration of 0.1 mmol/kg i.v. after 5 minutes or 3 or 24 hours p.i. are reproduced in FIG. 1.

N,N'-Bis[9-carboxylato-2,5,8-tris(carboxylatomethyl)-2,5,8-triazanonyl-carbamoyl]-mesoporphyrin-IX-13,17-diamide, digadolinium complex, disodium salt [Example 1c]
signal intensity change, kidneys (0.05 mmol/kg i.v.): stronger signal intensity change | signal intensity change, muscle (0.05 or 0.1 mmol/kg i.v., up to 24 hours p.i.): only a slight change | enhancement, Kidneys (1 min, 0.1 mmol/kg i.v.): 1.16 | enhancement, Liver (1 min, 0.1 mmol/kg i.v.): 1.55 | enhancement, Muscle (1 min, 0.1 mmol/kg i.v.): 1.46 | enhancement, Tumor (1 min, 0.1 mmol/kg i.v.): 2.48 | enhancement, Kidneys (5 min, 0.05 mmol/kg i.v.): 2.57 | enhancement, Liver (5 min, 0.05 mmol/kg i.v.): 1.48 | enhancement, Muscle (5 min, 0.05 mmol/kg i.v.): 1.34 | enhancement, Tumor (5 min, 0.05 mmol/kg i.v.): 1.88 | signal intensity change, liver tissue and tumors (5 minutes p.i., 0.05 or 0.1 mmol/kg i.v.): marked signal intensity increase | enhancement, Kidneys (15 min, 0.05 mmol/kg i.v.): 2.81 | enhancement, Liver (15 min, 0.05 mmol/kg i.v.): 1.29 | enhancement, Muscle (15 min, 0.05 mmol/kg i.v.): 1.26 | enhancement, Tumor (15 min, 0.05 mmol/kg i.v.): 1.97 | enhancement, Kidneys (15 min, 0.1 mmol/kg i.v.): 2.36 | enhancement, Liver (15 min, 0.1 mmol/kg i.v.): 1.61 | enhancement, Muscle (15 min, 0.1 mmol/kg i.v.): 1.30 | enhancement, Tumor (15 min, 0.1 mmol/kg i.v.): 2.40 | enhancement, Kidneys (26 min, 0.1 mmol/kg i.v.): 2.33 | enhancement, Liver (26 min, 0.1 mmol/kg i.v.): 1.45 | enhancement, Muscle (26 min, 0.1 mmol/kg i.v.): 1.37 | enhancement, Tumor (26 min, 0.1 mmol/kg i.v.): 2.41 | enhancement, Kidneys (30 min, 0.05 mmol/kg i.v.): 2.94 | enhancement, Liver (30 min, 0.05 mmol/kg i.v.): 1.42 | enhancement, Muscle (30 min, 0.05 mmol/kg i.v.): 1.22 | enhancement, Tumor (30 min, 0.05 mmol/kg i.v.): 1.71 | enhancement, Kidneys (40 min, 0.1 mmol/kg i.v.): 2.38 | enhancement, Liver (40 min, 0.1 mmol/kg i.v.): 1.51 | enhancement, Muscle (40 min, 0.1 mmol/kg i.v.): 1.23 | enhancement, Tumor (40 min, 0.1 mmol/kg i.v.): 2.34 | enhancement, Kidneys (45 min, 0.05 mmol/kg i.v.): 2.84 | enhancement, Liver (45 min, 0.05 mmol/kg i.v.): 1.49 | enhancement, Muscle (45 min, 0.05 mmol/kg i.v.): 1.12 | enhancement, Tumor (45 min, 0.05 mmol/kg i.v.): 1.71 | enhancement, Kidneys (60 min, 0.05 mmol/kg i.v.): 2.53 | enhancement, Liver (60 min, 0.05 mmol/kg i.v.): 1.52 | enhancement, Muscle (60 min, 0.05 mmol/kg i.v.): 1.10 | enhancement, Tumor (60 min, 0.05 mmol/kg i.v.): 1.50 | enhancement, Kidneys (60 min, 0.1 mmol/kg i.v.): 1.86 | enhancement, Liver (60 min, 0.1 mmol/kg i.v.): 1.36 | enhancement, Muscle (60 min, 0.1 mmol/kg i.v.): 1.23 | enhancement, Tumor (60 min, 0.1 mmol/kg i.v.): 2.34 | enhancement, Kidneys (71 min, 0.1 mmol/kg i.v.): 1.66 | enhancement, Liver (71 min, 0.1 mmol/kg i.v.): 1.62 | enhancement, Muscle (71 min, 0.1 mmol/kg i.v.): 1.17 | enhancement, Tumor (71 min, 0.1 mmol/kg i.v.): 2.36 | enhancement, Kidneys (75 min, 0.05 mmol/kg i.v.): 2.47 | enhancement, Liver (75 min, 0.05 mmol/kg i.v.): 1.50 | enhancement, Muscle (75 min, 0.05 mmol/kg i.v.): 1.04 | enhancement, Tumor (75 min, 0.05 mmol/kg i.v.): 1.71 | enhancement, Kidneys (85 min, 0.1 mmol/kg i.v.): 1.64 | enhancement, Liver (85 min, 0.1 mmol/kg i.v.): 1.48 | enhancement, Muscle (85 min, 0.1 mmol/kg i.v.): 1.32 | enhancement, Tumor (85 min, 0.1 mmol/kg i.v.): 2.39 | enhancement, Kidneys (90 min, 0.05 mmol/kg i.v.): 2.15 | enhancement, Liver (90 min, 0.05 mmol/kg i.v.): 1.53 | enhancement, Muscle (90 min, 0.05 mmol/kg i.v.): 1.11 | enhancement, Tumor (90 min, 0.05 mmol/kg i.v.): 1.62 | enhancement, Kidneys (105 min, 0.05 mmol/kg i.v.): 2.63 | enhancement, Liver (105 min, 0.05 mmol/kg i.v.): 1.63 | enhancement, Muscle (105 min, 0.05 mmol/kg i.v.): 1.07 | enhancement, Tumor (105 min, 0.05 mmol/kg i.v.): 1.75 | enhancement, Kidneys (115 min, 0.1 mmol/kg i.v.): 2.43 | enhancement, Liver (115 min, 0.1 mmol/kg i.v.): 1.62 | enhancement, Muscle (115 min, 0.1 mmol/kg i.v.): 1.23 | enhancement, Tumor (115 min, 0.1 mmol/kg i.v.): 2.38 | enhancement, Kidneys (150 min, 0.1 mmol/kg i.v.): 2.27 | enhancement, Liver (150 min, 0.1 mmol/kg i.v.): 1.48 | enhancement, Muscle (150 min, 0.1 mmol/kg i.v.): 1.17 | enhancement, Tumor (150 min, 0.1 mmol/kg i.v.): 2.31 | enhancement, Kidneys (160 min, 0.05 mmol/kg i.v.): 2.38 | enhancement, Liver (160 min, 0.05 mmol/kg i.v.): 1.47 | enhancement, Muscle (160 min, 0.05 mmol/kg i.v.): 1.07 | enhancement, Tumor (160 min, 0.05 mmol/kg i.v.): 1.69 | enhancement, Kidneys (180 min, 0.05 mmol/kg i.v.): 2.54 | enhancement, Liver (180 min, 0.05 mmol/kg i.v.): 1.57 | enhancement, Muscle (180 min, 0.05 mmol/kg i.v.): 1.02 | enhancement, Tumor (180 min, 0.05 mmol/kg i.v.): 1.67 | enhancement, Kidneys (180 min, 0.1 mmol/kg i.v.): 2.18 | enhancement, Liver (180 min, 0.1 mmol/kg i.v.): 1.59 | enhancement, Muscle (180 min, 0.1 mmol/kg i.v.): 1.22 | enhancement, Tumor (180 min, 0.1 mmol/kg i.v.): 2.38 | enhancement, Kidneys (24 hours, 0.05 mmol/kg i.v.): 1.17 | enhancement, Liver (24 hours, 0.05 mmol/kg i.v.): 0.93 | enhancement, Muscle (24 hours, 0.05 mmol/kg i.v.): 1.07 | enhancement, Tumor (24 hours, 0.05 mmol/kg i.v.): 1.31 | enhancement, Kidneys (24 hours, 0.1 mmol/kg i.v.): 0.94 | enhancement, Liver (24 hours, 0.1 mmol/kg i.v.): 1.33 | enhancement, Muscle (24 hours, 0.1 mmol/kg i.v.): 1.15 | enhancement, Tumor (24 hours, 0.1 mmol/kg i.v.): 2.02
